Experimental data from US11168055B2, “Endocyclic thiamidinoamide-arylamide compound and use thereof for treating hepatitis B” (SHANGHAI LONGWOOD BIOPHARMACEUTICALS CO., LTD., priority 2017, dated 2021).
Where two headings read alike, the source gives them in different places.

What was measured:
[1] = system: HBV DNA in the supernatant of HepG2.2.15; test: Determination of anti-HBV activity in HepG2.2.15 cell (HBV DNA in supernatant by qPCR); type: cell-based, Hepatitis B virus
[2] = Determination of cytotoxicity (HepG2 cells, resazurin assay, 4 days); type: cell-based; conditions: human, read-out: Experiment 3 Cytotoxicity CC50
Method: Experiment 3: Determination of Cytotoxicity
The cytotoxicity of the test compound was tested using HepG2 cells. The cells were incubated for 4 days in the presence of the test compound. Cell activity was assessed using the resazurin assay.

[3] = HepG2.2.15 cells, HBV DNA, read-out: Experiment 2 Cell experiment EC50
[4] = Hepatitis B virus, HepG2.2.15, HepG2.2.15 cells, HBV DNA, read-out: Experiment 2 Cell experiment EC50

SMILES | EC50 [1, 3] [nM] | CC50 at 4 days [2] [nM] | EC50 [1, 4] [nM] | EC50 ([1]; Hepatitis B virus, HepG2.2.15, read-out: Experiment 2 Cell experiment EC50) [nM]
CC(C)[C@H]1C=Cc2c(cn(C)c2C(=O)Nc2cc(F)nc(C#N)c2)S(=N)(=O)N1 (single isomer, unassigned) [Compound 10e1] | 100 to 1000 | > 30000 |  | 
CN=S1(=O)N[C@@H](CC(C)C)CCc2c1cn(C)c2C(=O)Nc1ccc(F)c(C#N)c1 (single isomer, unassigned) [Compound 60v1] | 100 to 1000 | > 30000 |  | 
CC(C)C[C@H]1CCc2c(cn(C)c2C(=O)Nc2ccc(F)c(C#N)c2)S(=O)(=NC2CC2)N1 (single isomer, unassigned) [Compound 60y1] | 100 to 1000 | > 30000 |  | 
CN=S1(=O)N[C@@H](C(C)C)C=Cc2c1cn(C)c2C(=O)Nc1ccc(F)c(F)c1 (single isomer, unassigned) [Compound 50a1] | 100 to 1000 | > 30000 |  | 
CC(O)[C@H]1C=Cc2c(cn(C)c2C(=O)Nc2cc(F)c(F)c(F)c2)S(=N)(=O)N1 (single isomer, unassigned) [Compound 30c1] |  | > 30000 | 100 to 1000 | 
CC(C)[C@H]1C=Cc2c(cn(C)c2C(=O)Nc2ccnc(C(F)F)c2)S(=N)(=O)N1 (single isomer, unassigned) [Compound 10f1] | 100 to 1000 | > 30000 |  | 
CC(C)[C@H]1CCc2c(cn(C)c2C(=O)Nc2ccc(F)c(F)c2)S(=N)(=O)N1 (single isomer, unassigned) [Compound 20a1] | 100 to 1000 | > 30000 |  | 
CCN=S1(=O)N[C@@H](C(C)C)CCc2c1cn(C)c2C(=O)Nc1ccc(F)c(C#N)c1 (single isomer, unassigned) [Compound 60g1] | 100 to 1000 | > 30000 |  | 
Cn1cc2c(c1C(=O)Nc1ccc(F)c(F)c1)C=C[C@H](CO)NS2(=N)=O (single isomer, unassigned) [Compound 30g1] |  | > 30000 | 100 to 1000 | 
CC(C)C[C@H]1C=Cc2c(nn(C)c2C(=O)Nc2ccc(F)c(C#N)c2)S(=N)(=O)N1 (single isomer, unassigned) [Compound 70b1] | 100 to 1000 | > 30000 |  | 
CC(C)C[C@H]1C=Cc2c(cn(C)c2C(=O)Nc2ccc(F)c(C#N)c2)S(=O)(=NC2CC2)N1 (single isomer, unassigned) [Compound 50v1] | 100 to 1000 | > 30000 |  | 
COc1ccc(CC[C@H](C)[C@H]2CCc3c(cn(C)c3C(=O)Nc3cc(F)c(F)c(F)c3)S(=N)(=O)N2)cc1 (single isomer, unassigned) [Compound 20ttt1] | 100 to 1000 | > 30000 |  | 
CC(O)[C@H]1CCc2c(cn(C)c2C(=O)Nc2ccc(F)c(C#N)c2)S(=N)(=O)N1 (single isomer, unassigned) [Compound 40b1] |  | > 30000 | 100 to 1000 | 
CC(O)[C@H]1C=Cc2c(cn(C)c2C(=O)Nc2ccc(F)c(C#N)c2)S(=N)(=O)N1 (single isomer, unassigned) [Compound 30b1] |  | > 30000 | 100 to 1000 | 
CC(C)[C@H]1CCc2c(nn(C)c2C(=O)Nc2ccc(F)c(C#N)c2)S(=N)(=O)N1 (single isomer, unassigned) [Compound 80a1] | 100 to 1000 | > 30000 |  | 
CC(O)[C@H]1CCc2c(cn(C)c2C(=O)Nc2ccc(F)c(F)c2)S(=N)(=O)N1 (single isomer, unassigned) [Compound 40a1] |  | > 30000 | 100 to 1000 | 
Cn1cc2c(c1C(=O)Nc1ccnc(C(F)F)c1)CC[C@H](C1CCCCC1)NS2(=N)=O (single isomer, unassigned) [Compound 20ee1] | 100 to 1000 | > 30000 |  | 
CC(C)[C@H]1C=Cc2c(cn(C)c2C(=O)Nc2ccc(F)c(F)c2)S(=N)(=O)N1 (single isomer, unassigned) [Compound 10a1] | 100 to 1000 | > 30000 |  | 
CCN=S1(=O)N[C@@H](CC(C)C)C=Cc2c1cn(C)c2C(=O)Nc1ccc(F)c(C#N)c1 (single isomer, unassigned) [Compound 50t1] | 100 to 1000 | > 30000 |  | 
Cn1cc2c(c1C(=O)Nc1ccc(F)c(F)c1)CC[C@H](CO)NS2(=N)=O (single isomer, unassigned) [Compound 40g1] |  | > 30000 | 100 to 1000 | 
CC(C)[C@H]1C=Cc2c(cn(C)c2C(=O)Nc2cc(F)c(F)c(F)c2)S(=N)(=O)N1 (single isomer, unassigned) [Compound 10c1] | 100 to 1000 | > 30000 |  | 
CC(C)C[C@H]1CCc2c(nn(C)c2C(=O)Nc2ccc(F)c(C#N)c2)S(=N)(=O)N1 (single isomer, unassigned) [Compound 80b1] | 100 to 1000 | > 30000 |  | 
CC(C)[C@H]1CCc2c(cn(C)c2C(=O)Nc2cc(F)c(F)c(F)c2)S(=N)(=O)N1 (single isomer, unassigned) [Compound 20c1] | 100 to 1000 | > 30000 |  | 

SMILES | EC50 [1, 3] [nM] | CC50 at 4 days [2] [nM] | EC50 [1, 4] [nM] | EC50 ([1]; Hepatitis B virus, HepG2.2.15, read-out: Experiment 2 Cell experiment EC50) [nM]
COc1ccc(CC[C@H](C)[C@H]2C=Cc3c(cn(C)c3C(=O)Nc3cc(F)nc(C#N)c3)S(=N)(=O)N2)cc1 (single isomer, unassigned) [Compound 10vvv1] | 100 to 1000 | > 30000 |  | 
CC(C)C[C@H]1C=Cc2c(cn(C)c2C(=O)Nc2cc(F)nc(C#N)c2)S(=N)(=O)N1 (single isomer, unassigned) [Compound 10w1] | 100 to 1000 | > 30000 |  | 
Cn1cc2c(c1C(=O)Nc1ccc(F)c(F)c1)C=C[C@H](C1CCCCC1)NS2(=N)=O (single isomer, unassigned) [Compound 10bb1] | 100 to 1000 | > 30000 |  | 
Cn1cc2c(c1C(=O)Nc1cc(F)nc(C#N)c1)CC[C@H](C1CCCCC1)NS2(=N)=O (single isomer, unassigned) [Compound 20dd1] | 100 to 1000 | > 30000 |  | 
CC(C)[C@H]1CCc2c(cn(C)c2C(=O)Nc2ccc(F)c(C#N)c2)S(=N)(=O)N1 (single isomer, unassigned) [Compound 20b1] | 100 to 1000 | > 30000 |  | 
CC(C)[C@@H]1C=Cc2c(cn(C)c2C(=O)Nc2ccc(F)c(C#N)c2)S(=N)(=O)N1 (single isomer, unassigned) [Compound 10h1] |  | > 30000 | > 1000 | 
C[C@@H](OCc1ccccc1)[C@H]1C=Cc2c(cn(C)c2C(=O)Nc2cc(F)c(F)c(F)c2)S(=N)(=O)N1 (single isomer, unassigned) [Compound 10ddd1] | 100 to 1000 | > 30000 |  | 
Cn1cc2c(c1C(=O)Nc1ccc(F)c(C#N)c1)C=C[C@H](C1CCCCC1)NS2(=N)=O (single isomer, unassigned) [Compound 10cc1] | 100 to 1000 | > 30000 |  | 
CC(C)[C@H]1C=Cc2c(cn(C)c2C(=O)Nc2ccc(F)c(C#N)c2)S(=N)(=O)N1 (single isomer, unassigned) [Compound 10b1] |  | > 30000 |  | 100 to 1000
CC[C@H](C)[C@H]1C=Cc2c(cn(C)c2C(=O)Nc2ccc(F)c(F)c2)S(=N)(=O)N1 (single isomer, unassigned) [Compound 10n1] | 100 to 1000 | > 30000 |  | 
CC(C)C[C@H]1C=Cc2c(cn(C)c2C(=O)Nc2ccc(F)c(C#N)c2)S(=O)(=NC(C)C)N1 (single isomer, unassigned) [Compound 50u1] | 100 to 1000 | > 30000 |  | 
CC[C@H](C)[C@H]1C=Cc2c(cn(C)c2C(=O)Nc2ccc(F)c(C#N)c2)S(=N)(=O)N1 (single isomer, unassigned) [Compound 10o1] | 100 to 1000 | > 30000 |  | 
CN=S1(=O)N[C@@H](C(C)C)CCc2c1cn(C)c2C(=O)Nc1ccc(F)c(F)c1 (single isomer, unassigned) [Compound 60a1] | 100 to 1000 | > 30000 |  | 
CCN=S1(=O)N[C@@H](CC(C)C)CCc2c1cn(C)c2C(=O)Nc1ccc(F)c(C#N)c1 (single isomer, unassigned) [Compound 60w1] | 100 to 1000 | > 30000 |  | 
C[C@@H](OCc1ccccc1)[C@H]1C=Cc2c(cn(C)c2C(=O)Nc2ccc(F)c(C#N)c2)S(=N)(=O)N1 (single isomer, unassigned) [Compound 10ccc1] | 100 to 1000 | > 30000 |  | 
CN=S1(=O)N[C@@H](CC(C)C)CCc2c1nn(C)c2C(=O)Nc1ccc(F)c(C#N)c1 (single isomer, unassigned) [Compound 90b1] | 100 to 1000 | > 30000 |  | 
CC(C)[C@@H]1C=Cc2c(cn(C)c2C(=O)Nc2ccc(F)c(F)c2)S(=N)(=O)N1 (single isomer, unassigned) [Compound 10g1] | 100 to 1000 | > 30000 |  | 
CC(C)C[C@H]1CCc2c(cn(C)c2C(=O)Nc2ccc(F)c(C#N)c2)S(=O)(=NC(C)C)N1 (single isomer, unassigned) [Compound 60x1] | 100 to 1000 | > 30000 |  | 
C[C@@H](OCc1ccccc1)[C@H]1CCc2c(cn(C)c2C(=O)Nc2ccc(F)c(C#N)c2)S(=N)(=O)N1 (single isomer, unassigned) [Compound 20ccc1] |  | > 30000 | 0.1 to 100 | 
CC(O)[C@H]1C=Cc2c(cn(C)c2C(=O)Nc2ccc(F)c(F)c2)S(=N)(=O)N1 (single isomer, unassigned) [Compound 30a1] |  | > 30000 | 100 to 1000 | 
CC(C)[C@H]1C=Cc2c(nn(C)c2C(=O)Nc2ccc(F)c(C#N)c2)S(=N)(=O)N1 (single isomer, unassigned) [Compound 70a1] | 100 to 1000 | > 30000 |  | 
CN=S1(=O)N[C@@H](C(C)C)CCc2c1nn(C)c2C(=O)Nc1ccc(F)c(C#N)c1 (single isomer, unassigned) [Compound 90a1] | 100 to 1000 | > 30000 |  | 
CN=S1(=O)N[C@@H](CC(C)C)C=Cc2c1cn(C)c2C(=O)Nc1ccc(F)c(C#N)c1 (single isomer, unassigned) [Compound 50s1] | 100 to 1000 | > 30000 |  | 
